Values after ≈ are worked out from the molar mass of the structure shown. Structures can show the parent of a compound that is named as a salt. Where two headings read alike, the source gives them in different places.
Tests used:
[1] = In vivo anticonvulsant activity, Antimetrazol (pentylenetetrazol-induced convulsions); set-up: species or system Male CD1 mice; key: +: Active; ±: Active, but weak; -: Inactive at this dose; conditions: p.o., 125 mg/kg pentylenetetrazol s.c. challenge; for Anticonvulsant profile, Antimetrazol (100): 100 mg/kg; for Anticonvulsant profile, Antimetrazol (10): 10 mg/kg
Method: Male CD1 mice, fasted at least 16 hours, were divided into groups of 10 and test compounds or vehicle were administered orally by gavage. The vehicle used was 0.5% aqueous methylcellulose solution containing 0.4% (v/v) of Tween 80. One hour later (or at time of suspected peak activity), the mice were challenged with 125 mg/kg of pentylenetetrazol, administered subcutaneously. Pentylenetetrazol was dissolved in 0.9% sodium chloride solution, and the dosage volume for administration of test compounds or the convulsant challenge was 10 ml/kg. Animals were housed individually for observation of convulsions for a period of 30 minutes.
Pentylenetetrazol-induced convulsions in vehicle-treated mice consist of mixed-clonic/tonic seizures. Tonic hindlimb extension and death are terminal consequences. Test compounds that block the hindlimb tonic extensor component of the convulsions in at least 50% of treated mice were considered active. ED50 values of active compounds may be calculated by the method of probits (Finney, 1971).

[2] = test system: cAMP stimulated parietal cell; experiment: Isolated parietal cell assay, inhibition of 14C-aminopyrine accumulation, dibutyryl cAMP stimulated; format: cell-based, rabbit; conditions: Oryctolagus cuniculus, 20 min, read-out: Isolated Parietal Cells IC50 vs cAMP
Method: (§1) The isolated parietal cell assay was conducted using the procedures of Batzri, S. et al., Biochemica et Biophysica Acta 508, 328 (1978) and Soll, A.H. Am. J. Physiol. 238, G366 (1980). Basically, parietal cells were isolated from the fundic mucosa of rabbit stomachs by a four-stage collagenase digestion process. The supernatant fractions from the last two stages of this process contain the individual parietal cells. This cell suspension was centrifuged and reconstituted in a modified Hank's buffer to contain 1-2×10^6 cells/ml. […] This accumulation was stimulated by histamine and was blocked by H2 antagonists. The cells were incubated with 0.4-0.5×10^6 cpm ^14 C-AP, with various concentrations of histamine as a stimulant, 1×10^-5 M isobutylmethylxanthine, and the test compound added in a 20 μl volume of buffer or DMSO. The flasks were incubated in a shaking water bath at 37° C. for 20 minutes. Two aliquots were then taken from each flask and cell pellets were collected by centrifugation. The pellets were solubilized with Protosol (New England Nuclear) and radioactivity determined by liquid scintillation spectrometry. Data are presented as the IC50 vs hist, the concentration of compound required to inhibit ^14 C-AP accumulation in the histamine stimulated parietal cell by 50%.
When dibutyryl cAMP was used to stimulate the cells instead of histamine, a similar inhibition of ^14 C-AP accumulation was measured and the data are presented as the IC50 vs cAMP, the concentration of compound required to inhibit ^14 C-AP accumulation in the cAMP stimulated parietal cell by 50%.

[3] = test system: Trichophyton mentagrophytes; experiment: In vitro antimicrobial activity, minimal inhibitory concentration (agar dilution), Trichophyton mentagrophytes; format: cell-based, Trichophyton mentagrophytes ATC 22839; conditions: Mueller Hinton agar, 32° C., 48 hours, complete inhibition of growth
Method: (§2) A 0.5 mg/ml stock solution of each Example compound was prepared in an appropriate solvent. From this stock, dilutions were prepared in solvent, and 0.2 ml aliquots of the stock and dilutions were added to tubes containing 19.8 ml of Mueller Hinton agar (46°-50° C.). The mixtures were poured into 100 by 15 mm petri dishes and allowed to solidify.
(§3) The test organisms (Candida albicans ATC 10231 and Trichophyton mentagrophytes ATC 22839) were diluted from frozen stock cultures. Inocula were diluted with sterile solution containing 0.1% peptone in water to contain approximately 2×10^5 […] (CFUs) per ml. Plate counts were performed on 1 mL of all inocula.
(§4) Each plate and unadulterated agar growth control was inoculated with the inocula prepared above using a Steer's Replicator method. Plates were then incubated at 32° C. Observations for growth were made at 48 hours.
(§5) The results of this test are reported below in Table 1 as compared to the known antifungal agents, miconazole nitrate and terconazole.

[4] = In vivo antisecretory activity, gastric secretion in pylorus ligated rats (acid output); set-up: species or system male Charles River Sprague Dawley derived rats; conditions: Rattus norvegicus, 4 h; 20 mpk, po; four hours after ligation; read-out: Pylorous Ligated Rats, effect on acid output compared to control
Candida albicans = experiment: In vitro antimicrobial activity, minimal inhibitory concentration (agar dilution), Candida albicans; format: cell-based, Candida albicans ATC 10231; conditions: read-out: Minimal inhibitory concentration, Candida albicans
Method: as §2, §3, §4, §5

[5] = In vivo anticonvulsant activity, Antielectroshock; set-up: species or system Male CD1 mice; key: +: Active; ±: Active, but weak; -: Inactive at this dose; conditions: p.o.; for Anticonvulsant profile, Antielectroshock (100): 100 mg/kg; for Anticonvulsant profile, Antielectroshock (10): 10 mg/kg
[6] = test system: histamine stimulated parietal cell; experiment: Isolated parietal cell assay, inhibition of 14C-aminopyrine accumulation, histamine stimulated; format: cell-based, rabbit; conditions: Oryctolagus cuniculus, 20 min, read-out: Isolated Parietal Cells IC50 vs his
Method: as §1

General CNS Behavior = format: in vivo, Male CD1 mice; conditions: 100 mg/kg, p.o.
[7] = dibutyryl cAMP stimulated, 14C-aminopyrine accumulation, 37° C., 20 minutes
[8] = Mueller Hinton agar, 32° C., 48 hours, complete inhibition of growth
[9] = histamine stimulated, 14C-aminopyrine accumulation, 37° C., 20 minutes

Row | SMILES | Anticonvulsant profile, Antimetrazol (100) [1] | IC50 [2, 7] | MIC [3] | change in vivo at 20 mg/kg [4] | MIC (Candida albicans; [8]) | Anticonvulsant profile, Antielectroshock (100) [5] | IC50 [6, 9] | Anticonvulsant profile, Antimetrazol (10) [1] | Anticonvulsant profile, Antielectroshock (10) [5] | General CNS Behavior (General CNS Behavior) | MIC (Candida albicans; 48 h) | IC50 [2] | IC50 [6]
1 | Cl.O=C(c1ccc(Cl)cc1)c1ccc(OCCCn2ccnc2)cc1 [Example 11, 4'-Chloro-4-(1H-imidazol-1-ylpropoxy) benzophenone hydrochloride] | - | 280 nM | 1 µg/mL | -35% | > 50 µg/mL | - | 280 nM |  |  |  |  |  | 
2 | CCCN(CCC)CCCOc1ccc(/C=C/c2cccc(OC)c2)cc1 [Example 3, (E)-3'-Methoxy-4-dipropylamino-propoxystilbene hydrochloride] | + | 110 nM | 50 µg/mL | -92% | 50 µg/mL | - | 100 nM | - |  |  |  |  | 
3 | C(=C\c1ccc(OCCCCn2ccnc2)cc1)/c1ccccc1 [Example 1, hydrochloride] | - | 450 nM | 50 µg/mL | -32% | > 50 µg/mL | - | 450 nM |  |  |  |  |  | 
4 | Clc1cccc(/C=C/c2ccc(OCCCCn3ccnc3)cc2)c1 [Example 5, hydrochloride] |  | 100 nM | > 50 µg/mL | -12% | > 50 µg/mL |  | 180 nM |  |  |  |  |  | 
5 | Cl.c1ccc(-c2ccc(OCCCn3ccnc3)cc2)cc1 [Example 8, 1-(1H-Imidazol-1-ylpropoxy)-4-phenylbenzene hydrochloride] | ± | 320 nM | 1 µg/mL | -33% | 1 µg/mL | ± | 230 nM | - | - | Wk CNS Depr |  |  | 
6 | Clc1ccc(COC(Cn2ccnc2)c2ccc(Cl)cc2Cl)c(Cl)c1 (stereo not drawn) [Miconazole Nitrate, miconazole nitrate, reference compound] |  |  | 5 µg/mL |  |  |  |  |  |  |  | 1 µg/mL |  | 
7 | CCCN(CCC)CCCCOc1ccc(-c2ccccc2)cc1.Cl [Example 7, 1-(Dipropylaminobutoxy)-4-phenylbenzene hydrochloride] | ± | 260 nM | 1 µg/mL | -45% | 50 µg/mL | ± | 120 nM | - | - |  |  |  | 
8 | c1ccc(Cc2ccc(OCCCn3ccnc3)cc2)cc1 [Example 12, 1-[4-(1H-Imidazol-1-ylpropoxyphenyl)-1-phenylmethane hydrochloride] | + | 300 nM | 10 µg/mL | -51% | 50 µg/mL | + | 140 nM | - | - | Mod CNS Depr |  |  | 
9 | Cl.c1ccc(-c2ccc(OCCCCn3ccnc3)cc2)cc1 [Example 6, 1-(1H-Imidazol-1-ylbutoxy)-4-phenylbenzene hydrochloride] | ± | 160 nM | 1 µg/mL | -24% | 1 µg/mL | ± | 170 nM | - | - | Wk CNS Depr |  |  | 
10 | CC(C)N1CCN(c2ccc(OCC3COC(Cn4cncn4)(c4ccc(Cl)cc4Cl)O3)cc2)CC1 (stereo not drawn) [Terconazole, terconazole, reference compound] |  |  | 50 µg/mL (≈ 93.9 µM) |  | 0.1 µg/mL (≈ 0.188 µM) |  |  |  |  |  |  |  | 
11 | Cl.c1ccc(-c2ccc(OCCCCCn3ccnc3)cc2)cc1 [Example 9, 1-(1H-Imidazol-1-ylpentoxy)-4-phenylbenzene hydrochloride] |  | 110 nM | 10 µg/mL | -54% | 50 µg/mL |  | 90 nM |  | - |  |  |  | 
12 | c1ccc(-c2ccc(OCCCCCn3cncn3)cc2)cc1 [Example 10, hydrochloride] |  | < 10000 nM | 10 µg/mL |  | > 50 µg/mL |  | < 10000 nM |  |  |  |  |  | 
13 | CN/C(=N/CCSCc1nc[nH]c1C)NC#N [Cimetidine, cimetidine, reference compound] |  |  |  |  |  |  |  |  |  |  |  | > 100000 nM | 820 nM
14 | C(=C\c1ccc(OCCCn2ccnc2)cc1)/c1ccccc1.Cl [Example 2, (E)-4-(1H-Imidazol-1-yl)propoxystilbene hydrochloride] | + | 270 nM | 10 µg/mL | -4% | > 50 µg/mL | + | 160 nM | - | - |  |  |  | 
15 | CNC(=C[N+](=O)[O-])NCCSCc1ccc(CN(C)C)o1 [Ranitidine, ranitidine, reference compound] |  | > 100000 nM |  |  |  |  | 40 nM |  |  |  |  |  | 
